Reference: PubChem BioAssay (NCI)
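48-hour exposure; five concentrations; linearly interpolated endpoints. The concentration for 50% growth inhibition is given as GI50. TGI: concentration producing complete growth inhibition.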

Tests used:
Experiment in all cases: NCI anticancer screen, dose series, 48 h
HS 578T breast = tested on: HS 578T breast
K-562 leukemia = tested on: K-562 leukemia
COLO 205 colon = tested on: COLO 205 colon
ACHN renal = tested on: ACHN renal
RPMI-8226 leukemia = tested on: RPMI-8226 leukemia
SW-620 colon = tested on: SW-620 colon
M14 melanoma = tested on: M14 melanoma
SNB-75 CNS = tested on: SNB-75 CNS
SK-MEL-28 melanoma = tested on: SK-MEL-28 melanoma
PC-3 prostate = tested on: PC-3 prostate

SMILES | GI50 (HS 578T breast) [µM] | TGI (HS 578T breast) [µM] | GI50 (K-562 leukemia) [µM] | TGI (K-562 leukemia) [µM] | GI50 (COLO 205 colon) [µM] | TGI (COLO 205 colon) [µM] | GI50 (ACHN renal) [µM] | TGI (ACHN renal) [µM] | GI50 (RPMI-8226 leukemia) [µM] | TGI (RPMI-8226 leukemia) [µM] | GI50 (SW-620 colon) [µM] | TGI (SW-620 colon) [µM] | GI50 (M14 melanoma) [µM] | TGI (M14 melanoma) [µM] | GI50 (SNB-75 CNS) [µM] | TGI (SNB-75 CNS) [µM] | GI50 (SK-MEL-28 melanoma) [µM] | TGI (SK-MEL-28 melanoma) [µM] | GI50 (PC-3 prostate) [µM] | TGI (PC-3 prostate) [µM]
C=C1C(=O)O[C@H]2[C@H]1CC/C(COC(=O)NCc1ccc(OC)cc1)=C\CC[C@@]1(C)O[C@@H]21 | 3.1 | 30.7 | 0.897 | 9.08 | 0.656 | 1.55 | 0.58 | 1.49 | 0.683 | 2.3 | 0.635 | 1.55 | 0.52 | 1.14 | 1 | 15.3 | 0.726 | 1.7 | 2.61 | 14.3
Cc1ccc2nc(-c3ccc(OCC(=O)N=Nc4c(O)[nH]c5ccccc45)cc3)[nH]c2c1 | 11.4 | 42.3 | 2.43 | 9.44 | 4.03 | > 100 | 7.37 | > 100 | 3.44 | 17.8 | 2.02 | 4.32 | 5.43 | > 100 | 13 | 38.5 | 2.61 | 7 | 1.74 | 3.65
COc1cc2ncnc(-n3ncc4cc(NC(=O)Nc5ccc(Cl)c(Cl)c5)ccc43)c2cc1OC | 2 | 7.95 | 3.02 | 10.8 | 2.32 | 5.58 | 1.45 | 3.25 | 2.11 | 7.52 | 2.26 | 4.76 | 1.65 | 3.58 | 1.24 | 3.41 | 1.57 | 3.24 | 1.55 | 3.24
Cc1cc(C)c2c(n1)sc1c(N)ncnc12 | 11.4 | > 25 | > 25 | > 25 | 17 | > 25 | 14.2 | > 25 | > 25 | > 25 | > 25 | > 25 | > 25 | > 25 | > 20.8 | > 25 | > 25 | > 25 | > 25 | > 25
CNNC(=N\S(=O)(=O)c1cc(C)c(Cl)cc1SCc1ccccc1)/N=C/c1ccc([N+](=O)[O-])s1 | > 100 | > 100 | 28.4 | > 100 | 0.776 |  | > 100 | > 100 | 0.422 | > 45.3 | 30.9 | > 100 | 9.97 | > 78.5 | > 100 | > 100 | > 100 | > 100 | > 100 | > 100
